Read-outs that look alike come from different tables or passages of the source. Square brackets hold non-standard residues; d marks the D form. Peptide text beside a SMILES is read from it. Nspe = C[C@H](NCC(=O)O)c1ccccc1; NhArg = N=C(N)NCCCCNCC(=O)O; NPentylGly = CCCCCNCC(=O)O
Assays:
Format in all cases: cell-based
[1] = tested on: Staphylococcus aureus (3R7089 strain Oxford/ATCC9144); conditions: lowest concentration completely inhibiting growth, 37 °C, 16 h; range 2–100 μM
How it was run: (§1)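 Single colonies were grown 16–18 h at 37 °C in Iso-sensitest broth, brought to A650nm 0.07 and diluted tenfold. This inoculum met doubling dilutions of each peptoid (2–100 µM final), then incubated 16 h at 37 °C shaking before absorbance measurement.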

[2] = tested on: Staphylococcus epidermidis (laboratory strain from clinical isolate); conditions: lowest concentration completely inhibiting growth, 37 °C, 16 h; range 2–100 μM
How it was run: as §1

[3] = tested on: Pseudomonas aeruginosa PA01 (ATCC 15692)
How it was run: as §1

[4] = tested on: Escherichia coli K-12 wild-type strain (W3110/ATCC27325); conditions: for MIC E. coli: lowest concentration completely inhibiting growth, 37 °C, 16 h, range 2–100 μM
How it was run: as §1

[5] = lowest concentration completely inhibiting growth, 37 °C, 16 h, range 2–100 μM

CCCCCNCC(=O)N(CC(=O)N(CC(=O)N(CCCCN)CC(=O)N(CC(=O)N(CC(=O)N(CCCCN)CC(=O)N(CC(=O)N(CC(=O)N(CCCCN)CC(=O)N(CC(=O)N(CC(N)=O)[C@@H](C)c1ccccc1)[C@@H](C)c1ccccc1)[C@@H](C)c1ccccc1)[C@@H](C)c1ccccc1)[C@@H](C)c1ccccc1)[C@@H](C)c1ccccc1)[C@@H](C)c1ccccc1)[C@@H](C)c1ccccc1 [Peptoid 30, (NamyNspeNspe)[(NLysNspeNspe)]3]
MIC S. aureus [1]: 2 µM
MIC S. epidermidis [2]: 2 µM
MIC P. aeruginosa [3, 5]: 50 µM
MIC E. coli [4]: 50 µM

CCCCCNCC(=O)N(CC(=O)N(CC(=O)N(CCCCC)CC(=O)N(CC(=O)N(CC(=O)N(CCCCN)CC(=O)N(CC(=O)N(CC(=O)N(CCCCN)CC(=O)N(CC(=O)N(CC(N)=O)[C@@H](C)c1ccccc1)[C@@H](C)c1ccccc1)[C@@H](C)c1ccccc1)[C@@H](C)c1ccccc1)[C@@H](C)c1ccccc1)[C@@H](C)c1ccccc1)[C@@H](C)c1ccccc1)[C@@H](C)c1ccccc1 [Peptoid 31, (NamyNspeNspe)2(NLysNspeNspe)2]
MIC S. aureus [1]: 2 µM
MIC S. epidermidis [2]: 1 µM
MIC P. aeruginosa ([3]; ATCC 15692, 16 h): >100 µM
MIC P. aeruginosa [3, 5]: 100 µM
MIC E. coli [4]: >100 µM

CCCCCN(CC(=O)N(CC(=O)N(CC(=O)N(CCCCN)CC(=O)N(CC(=O)N(CC(N)=O)[C@@H](C)c1ccccc1)[C@@H](C)c1ccccc1)[C@@H](C)c1ccccc1)[C@@H](C)c1ccccc1)C(=O)CN(C(=O)CN(C(=O)CN(CCCCN)C(=O)CN(C(=O)CN(C(=O)CNCCCCN)[C@@H](C)c1ccccc1)[C@@H](C)c1ccccc1)[C@@H](C)c1ccccc1)[C@@H](C)c1ccccc1 [Peptoid 32, (NLysNspeNspe)2(NamyNspeNspe)(NLysNspeNspe)]
MIC S. aureus [1]: 6 µM
MIC S. epidermidis [2]: 2 µM
MIC P. aeruginosa ([3]; ATCC 15692, 16 h): >100 µM
MIC P. aeruginosa [3, 5]: 100 µM
MIC E. coli [4]: >100 µM

C[C@@H](c1ccccc1)N(CC(N)=O)C(=O)CN(C(=O)CN(CCCCNC(=N)N)C(=O)CN(C(=O)CN(C(=O)CN(CCCCNC(=N)N)C(=O)CN(C(=O)CN(C(=O)CN(CCCCNC(=N)N)C(=O)CN(C(=O)CN(C(=O)CNCCCCNC(=N)N)[C@@H](C)c1ccccc1)[C@@H](C)c1ccccc1)[C@@H](C)c1ccccc1)[C@@H](C)c1ccccc1)[C@@H](C)c1ccccc1)[C@@H](C)c1ccccc1)[C@@H](C)c1ccccc1 [Peptoid 34, (NhArgNspeNspe)4] (H-[NhArg][Nspe][Nspe][NhArg][Nspe][Nspe][NhArg][Nspe][Nspe][NhArg][Nspe][Nspe]-NH2)
MIC S. aureus [1]: 1 µM
MIC S. epidermidis [2]: 1 µM
MIC P. aeruginosa [3, 5]: 13 µM
MIC E. coli [4]: 6 µM

CCCCCNCC(=O)N(CC(=O)N(CC(=O)N(CCCCNC(=N)N)CC(=O)N(CC(=O)N(CC(=O)N(CCCCC)CC(=O)N(CC(=O)N(CC(=O)N(CCCCNC(=N)N)CC(=O)N(CC(=O)N(CC(N)=O)[C@@H](C)c1ccccc1)[C@@H](C)c1ccccc1)[C@@H](C)c1ccccc1)[C@@H](C)c1ccccc1)[C@@H](C)c1ccccc1)[C@@H](C)c1ccccc1)[C@@H](C)c1ccccc1)[C@@H](C)c1ccccc1 [Peptoid 40, [(NamyNspeNspe)(NhArgNspeNspe)]2] (H-[NPentylGly][Nspe][Nspe][NhArg][Nspe][Nspe][NPentylGly][Nspe][Nspe][NhArg][Nspe][Nspe]-NH2)
MIC S. aureus [1]: 3 µM
MIC S. epidermidis [2]: 6 µM
activity against P. aeruginosa (in words) [3]: not active
MIC P. aeruginosa ([3]; ATCC 15692, 16 h): >100 µM
MIC P. aeruginosa [3, 5]: 100 µM
activity against E. coli (in words) [4]: not active
MIC E. coli [4]: >100 µM

(NhArgNmfbNmfb)4 [Peptoid 36]
MIC S. aureus [1]: 2 µM
MIC S. epidermidis [2]: 2 µM
MIC P. aeruginosa [3, 5]: 13 µM
MIC E. coli [4]: 13 µM
